Test results published in patent US20220347305A1, “CONTROLLED RELEASE DRUG DIMERS” (Ripple Therapeutics Corporation, priority 2019, published 2022).

Legend:
[1] = Drug release and erosion of Compound 1 heat-molded pellets in release buffer (PBS, 1% FBS in PBS, 100% FBS); format: physicochemical; details: 37° C., 115 rpm
Procedure: Heat-molded pellets from Compound 1 (˜1 mm×1 mm) were then placed in 20 mL glass vials and 2 mL of release buffer (either 100% phosphate buffered saline (PBS), 1% fetal bovine serum (FBS) in PBS, or 100% FBS) was added. Samples were incubated at 37° C. on a shaker rotating at 115 rpm. After 1 day, 3 days, 7 days, and subsequently in alternating 3 and 4 day intervals (i.e., 1, 3, 7, 10, 14 days etc.), release buffer was sampled directly (PBS) or syringe filtered, proteins were precipitated with acetonitrile, and drug release products were extracted. The samples were analyzed by high performance liquid chromatography (HPLC) to quantify drug products. Cumulative drug release was calculated and plotted as a percentage of the total drug in each pellet released over time (FIG. 1E).

[2] = Pellet formation by heat molding (heat processing of compounds); format: physicochemical; details: processed ~10-30° C. above Tg or Tm, pressed into cylindrical mold ~1 mm x 1 mm, light microscopy
Procedure: Crystalline powder was melted at 185° C. and pellets were formed from 1 mm×1 mm cylindrical molds. The starting powder and heat-processed pellets were tested by differential scanning calorimetry (DSC; FIG. 1C) and X-ray powder diffraction (XRPD; FIG. 1D) to confirm heat-processing converted Compound 1 from the crystalline state to the glassy state.
Compounds that were collected as stable powders and/or gums were investigated for pellet formation by heat molding. Compounds were processed at a temperature ˜10-30° C. above their corresponding thermal transitions (glass transition temperature (Tg) for gums or amorphous powders or melting point (Tm) for crystalline powders) and pressed into a cylindrical mold of ˜1 mm in height×1 mm in diameter. Light microscopy was used to capture images of the heat-formed pellets. Temperatures used to achieve a melt for heat molding were in a range from 70° C. to 220° C.

[3] = Drug release from heat-molded pellets in phosphate buffered saline; format: physicochemical; details: 37° C.; for Observation of pellet after 1-day incubation in release buffer: 4 mL PBS, shaker 115 rpm
Procedure: Drug release from heat-molded pellets of the compounds were assessed in phosphate buffered saline (PBS). Heat-molded pellets were placed in 20 ml glass vials and 2 ml of release buffer was added. Samples were incubated at 37° C. with constant agitation at 115 rpm. Release buffer was sampled and fully replaced with 2 ml of fresh buffer on days 1, 3, 7, 10, and 14. Samples were analyzed by high performance liquid chromatography (HPLC) to quantify drug products. Cumulative release was calculated as a percentage of total mass of starting pellets and was plotted over time.
Heat molded pellets of Compound 3, Compound 5, and Compound 8 were then placed in 20 mL glass vials and 4 mL of release buffer (phosphate buffered saline, PBS) was added. Samples were incubated at 37° C. on a shaker rotating at 115 rpm. […] Drug release from Compound 8 was assessed by HPLC from PBS release buffer weekly for 8 weeks with full buffer change at each time point.

SMILES	melting point	Pellet formation by heat molding and handling properties of the pellet [2]	further results
C[C@@H]1C[C@H]2[C@@H]3CCC4=CC(=O)C=C[C@]4(C)[C@@]3(F)[C@@H](O)C[C@]2(C)[C@@]1(O)C(=O)COC(=O)OCCOCCOCCOC(=O)OCC(=O)[C@@]1(O)[C@H](C)C[C@H]2[C@@H]3CCC4=CC(=O)C=C[C@]4(C)[C@@]3(F)[C@@H](O)C[C@@]21C [Compound 1, Dexamethasone-Triethylene Glycol-Dexamethasone]	–	formed into pellets in the glassy state	Erosion of pellets over time (representative images) [1]: surface erosion over time
O=C(OCCCCCCCOC(=O)N1CCCN(S(=O)(=O)c2cccc3cnccc23)CC1)N1CCCN(S(=O)(=O)c2cccc3cnccc23)CC1 [Compound 3, heptane-1,7-diyl bis(4-(isoquinolin-5-ylsulfonyl)-1,4-diazepane-1-carboxylate)]	–	successfully formed glassy, mostly transparent pellets	Observation of pellet after 1-day incubation in release buffer [3]: pellet shape changed to a clear gel
O=C(CCCCCCCCC(=O)N1CCCN(S(=O)(=O)c2cccc3cnccc23)CC1)N1CCCN(S(=O)(=O)c2cccc3cnccc23)CC1 [Compound 5, 1,10-bis(4-(isoquinolin-5-ylsulfonyl)-1,4-diazepan-1-yl)decane-1,10-dione]	–	successfully formed glassy, mostly transparent pellets	Observation of pellet after 1-day incubation in release buffer [3]: fragmented entirely to opaque particulates
O=C(CCCCC(=O)Oc1ccc2c3c1O[C@H]1C(=O)CC[C@@]4(O)[C@@H](C2)N(CC2CC2)CC[C@]314)Oc1ccc2c3c1O[C@H]1C(=O)CC[C@@]4(O)[C@@H](C2)N(CC2CC2)CC[C@]314 [Compound 10, bis((4R,4aS,7aR,12bS)-3-(cyclopropylmethyl)-4a-hydroxy-7-oxo-2,3,4,4a,5,6,7,7a-octahydro-1H-4,12-methanobenzofuro[3,2-e]isoquinolin-9-yl) adipate]	–	didn't form a viscous liquid that could be pressed into a pellet	–
O=C(Oc1ccc2c3c1O[C@H]1C(=O)CC[C@@]4(O)[C@@H](C2)N(CC2CC2)CC[C@]314)c1ccc(C(=O)Oc2ccc3c4c2O[C@H]2C(=O)CC[C@@]5(O)[C@@H](C3)N(CC3CC3)CC[C@]425)cc1 [Compound 16, bis((4R,4aS,7aR,12bS)-3-(cyclopropylmethyl)-4a-hydroxy-7-oxo-2,3,4,4a,5,6,7,7a-octahydro-1H-4,12-methanobenzofuro[3,2-e]isoquinolin-9-yl) terephthalate]	–	–	Pellet formation by heat molding and handling properties of the pellet ([2]; listed as Naltrexone-1,4-terephthalate-Naltrexone): did not form a heat processed pellet

Second part, led by results:

melting point	SMILES	Pellet formation by heat molding and handling properties of the pellet [2]	further results
161 to 166 °C	N[C@@H](Cc1ccc(O)c(O)c1)C(=O)OCC1CCC(COC(=O)[C@@H](N)Cc2ccc(O)c(O)c2)CC1 (stereo partly drawn) [Compound 6, cyclohexane-1,4-diylbis(methylene) (2S,2′S)-bis(2-amino-3-(3,4-dihydroxyphenyl)propanoate)]	–	–
102 °C	COc1ccc2c(c1)c(CC(=O)OCCOCCOCCOC(=O)Cc1c(C)n(C(=O)c3ccc(Cl)cc3)c3ccc(OC)cc13)c(C)n2C(=O)c1ccc(Cl)cc1 [Compound 8, (ethane-1,2-diylbis(oxy))bis(ethane-2,1-diyl) bis(2-(1-(4-chlorobenzoyl)-5-methoxy-2-methyl-1H-indol-3-yl)acetate)]	formed opaque yellow-tinted pellets that could be handled	Drug release from pellet assessed by HPLC ([3]; PBS release buffer, weekly for 8 weeks with full buffer change): Minimal drug release
120 °C	C=CCN1CC[C@]23c4c5ccc(OC(=O)CCCCC(=O)Oc6ccc7c8c6O[C@H]6C(=O)CC[C@@]9(O)[C@@H](C7)N(CC=C)CC[C@]869)c4O[C@H]2C(=O)CC[C@@]3(O)[C@H]1C5 [Compound 9, bis((4R,4aS,7aR,12bS)-3-allyl-4a-hydroxy-7-oxo-2,3,4,4a,5,6,7,7a-octahydro-1H-4,12-methanobenzofuro[3,2-e]isoquinolin-9-yl) adipate]	–	–
